# Values quoted from earlier work, collected in patent publication US20070098654A1, “Nail whitening composition” (L'OREAL, priority 2005, published 2007).
# Conditions: at 20° C.
compound,measurement,value
NC(N)=O.OO [Carbamide peroxide],Solubility in water,about 500 g/l
